Tests used:
[1] = test system: microorganisms; assay: Germ count in process water of pasteurization plants (Plate Count Agar); type: cell-based
Excerpt: In order to examine the influence of chlorine dioxide on the microbial quality of process water, the process water of a first pasteurization plant was mixed with the aqueous solution according to the invention containing chlorine dioxide, and the process water of a second pasteurization plant was mixed with a biocide.
(§1) The aqueous solution according to the invention containing chlorine dioxide (prepared with the persulfate-chlorite process) was metered discontinuously into the process water of the first pasteurization plant in an amount so as to keep the redox potential of the process water in the range of 400 to 800 mV. When the redox potential in the process water fell below 400 to 450 mV, the aqueous solution according to the invention containing chlorine dioxide was metered in until a redox potential between 750 and 800 mV was reached.
In contrast, bronopol was added to the process water of the second pasteurization plant on a time-controlled basis (every three days) in such an amount that the concentration of bronopol in the process water was […]. […]
The germ count in 1 ml of sample was determined using “Plate Count Agar” (PCA), with the appropriate amount of process water being applied to PCA plates. One plate at a time was incubated at 37° C., and one plate at a time was incubated at 28° C. The evaluation of the germ count took place after 2 and 5 days, respectively.

[2] = Redox potential of treated process water; type: physicochemical
Excerpt: as §1
Concurrently. the redox potential of the pasteurization plant in which chlorine dioxide was metered into the process water was measured at the time of sampling for determining the germ count.
In 5 measurements within the examination period. the redox potential of the process water treated with bronopol always amounted to more than 1000 mV.

O=[N+]([O-])C(Br)(CO)CO [bronopol, reference compound]
Germ count/ml process water ([1]; 1 Mar. 2021): >10000 mL⁻¹
Germ count/ml process water ([1]; 2 Feb. 2021): 81600 mL⁻¹
Germ count/ml process water ([1]; 4 Feb. 2021): >10000 mL⁻¹
Germ count/ml process water ([1]; 4 Jan. 2021): 3600 mL⁻¹
Germ count/ml process water ([1]; 5 Apr. 2021): >10000 mL⁻¹
Germ count/ml process water ([1]; 7 Jan. 2021): 4200 mL⁻¹
Germ count/ml process water ([1]; 8 Apr. 2021): >10000 mL⁻¹
Germ count/ml process water ([1]; 8 Feb. 2021): >10000 mL⁻¹
Germ count/ml process water ([1]; 11 Feb. 2021): >10000 mL⁻¹
Germ count/ml process water ([1]; 11 Jan. 2021): 3400 mL⁻¹
Germ count/ml process water ([1]; 12 Apr. 2021): >10000 mL⁻¹
Germ count/ml process water ([1]; 12 Mar. 2021): >10000 mL⁻¹
Germ count/ml process water ([1]; 14 Jan. 2021): >10000 mL⁻¹
Germ count/ml process water ([1]; 15 Apr. 2021): >10000 mL⁻¹
Germ count/ml process water ([1]; 15 Mar. 2021): >10000 mL⁻¹
Germ count/ml process water ([1]; 17 Feb. 2021): 76000 mL⁻¹
Germ count/ml process water ([1]; 18 Feb. 2021): >10000 mL⁻¹
Germ count/ml process water ([1]; 18 Jan. 2021): >10000 mL⁻¹
Germ count/ml process water ([1]; 18 Mar. 2021): >10000 mL⁻¹
Germ count/ml process water ([1]; 19 Apr. 2021): >10000 mL⁻¹
Germ count/ml process water ([1]; 21 Jan. 2021): 60200 mL⁻¹
Germ count/ml process water ([1]; 22 Feb. 2021): >10000 mL⁻¹
Germ count/ml process water ([1]; 22 Mar. 2021): >10000 mL⁻¹
Germ count/ml process water ([1]; 23 Apr. 2021): >10000 mL⁻¹
Germ count/ml process water ([1]; 25 Jan. 2021): >10000 mL⁻¹
Germ count/ml process water ([1]; 25 Mar. 2021): >10000 mL⁻¹
Germ count/ml process water ([1]; 26 Apr. 2021): >10000 mL⁻¹
Germ count/ml process water ([1]; 26 Feb. 2021): 51000 mL⁻¹
Germ count/ml process water ([1]; 28 Jan. 2021): 54400 mL⁻¹
Germ count/ml process water ([1]; 29 Apr. 2021): >10000 mL⁻¹
Germ count/ml process water ([1]; 29 Mar. 2021): >10000 mL⁻¹
redox potential of the process water ([2]; 5 measurements within the examination period): more than 1000 mV

[O][Cl+][O-] [chlorine dioxide]
Germ count/ml process water ([1]; 1 Mar. 2021): 940 mL⁻¹
Germ count/ml process water ([1]; 2 Feb. 2021): 7040 mL⁻¹
Germ count/ml process water ([1]; 4 Feb. 2021): 800 mL⁻¹
Germ count/ml process water ([1]; 4 Jan. 2021): 280 mL⁻¹
Germ count/ml process water ([1]; 5 Apr. 2021): 160 mL⁻¹
Germ count/ml process water ([1]; 7 Jan. 2021): 3840 mL⁻¹
Germ count/ml process water ([1]; 8 Apr. 2021): 2800 mL⁻¹
Germ count/ml process water ([1]; 8 Feb. 2021): 80 mL⁻¹
Germ count/ml process water ([1]; 11 Feb. 2021): 100 mL⁻¹
Germ count/ml process water ([1]; 11 Jan. 2021): 3480 mL⁻¹
Germ count/ml process water ([1]; 12 Apr. 2021): 6560 mL⁻¹
Germ count/ml process water ([1]; 12 Mar. 2021): 9200 mL⁻¹
Germ count/ml process water ([1]; 14 Jan. 2021): 3120 mL⁻¹
Germ count/ml process water ([1]; 15 Apr. 2021): 700 mL⁻¹
Germ count/ml process water ([1]; 15 Mar. 2021): 100 mL⁻¹
Germ count/ml process water ([1]; 17 Feb. 2021): 200 mL⁻¹
Germ count/ml process water ([1]; 18 Feb. 2021): 1120 mL⁻¹
Germ count/ml process water ([1]; 18 Jan. 2021): 4160 mL⁻¹
Germ count/ml process water ([1]; 18 Mar. 2021): 60 mL⁻¹
Germ count/ml process water ([1]; 19 Apr. 2021): 140 mL⁻¹
Germ count/ml process water ([1]; 21 Jan. 2021): 2100 mL⁻¹
Germ count/ml process water ([1]; 22 Feb. 2021): 1740 mL⁻¹
Germ count/ml process water ([1]; 22 Mar. 2021): 8000 mL⁻¹
Germ count/ml process water ([1]; 23 Apr. 2021): 2020 mL⁻¹
Germ count/ml process water ([1]; 25 Jan. 2021): 4800 mL⁻¹
Germ count/ml process water ([1]; 25 Mar. 2021): 10000 mL⁻¹
Germ count/ml process water ([1]; 26 Apr. 2021): 4500 mL⁻¹
Germ count/ml process water ([1]; 26 Feb. 2021): 2340 mL⁻¹
Germ count/ml process water ([1]; 28 Jan. 2021): 500 mL⁻¹
Germ count/ml process water ([1]; 29 Apr. 2021): 3700 mL⁻¹
Germ count/ml process water ([1]; 29 Mar. 2021): 10000 mL⁻¹
germ count compared with conventional biocide (in words) ([1]; redox potential kept at 400 to 800 mV, 4 months): lower germ count
Redox potential in process water ([2]; 1 Mar. 2021): 720 mV
Redox potential in process water ([2]; 2 Feb. 2021): 710 mV
Redox potential in process water ([2]; 4 Feb. 2021): 550 mV
Redox potential in process water ([2]; 4 Jan. 2021): 810 mV
Redox potential in process water ([2]; 5 Apr. 2021): 770 mV
Redox potential in process water ([2]; 7 Jan. 2021): 740 mV
Redox potential in process water ([2]; 8 Apr. 2021): 640 mV
Redox potential in process water ([2]; 8 Feb. 2021): 800 mV
Redox potential in process water ([2]; 11 Feb. 2021): 750 mV
Redox potential in process water ([2]; 11 Jan. 2021): 710 mV
Redox potential in process water ([2]; 12 Apr. 2021): 450 mV
Redox potential in process water ([2]; 12 Mar. 2021): 580 mV
Redox potential in process water ([2]; 14 Jan. 2021): 700 mV
Redox potential in process water ([2]; 15 Apr. 2021): 800 mV
Redox potential in process water ([2]; 15 Mar. 2021): 760 mV
Redox potential in process water ([2]; 17 Feb. 2021): 780 mV
Redox potential in process water ([2]; 18 Feb. 2021): 740 mV
Redox potential in process water ([2]; 18 Jan. 2021): 620 mV
Redox potential in process water ([2]; 18 Mar. 2021): 780 mV
Redox potential in process water ([2]; 19 Apr. 2021): 780 mV
Redox potential in process water ([2]; 21 Jan. 2021): 540 mV
Redox potential in process water ([2]; 22 Feb. 2021): 510 mV
Redox potential in process water ([2]; 22 Mar. 2021): 660 mV
Redox potential in process water ([2]; 23 Apr. 2021): 560 mV
Redox potential in process water ([2]; 25 Jan. 2021): 420 mV
Redox potential in process water ([2]; 25 Mar. 2021): 490 mV
Redox potential in process water ([2]; 26 Apr. 2021): 630 mV
Redox potential in process water ([2]; 26 Feb. 2021): 640 mV
Redox potential in process water ([2]; 28 Jan. 2021): 790 mV
Redox potential in process water ([2]; 29 Apr. 2021): 680 mV
Redox potential in process water ([2]; 29 Mar. 2021): 430 mV

Source: patent publication US20240279089A1, “METHOD FOR CONTROLLING THE GROWTH OF MICROORGANISMS” (RED BULL GMBH, priority 2021, published 2024)
